The values below come from US20080045514A1 (Cytovia, Inc., priority 2006, published 2008).

Assay type in all cases: cell-based
In assay [1] the test system is human breast cancer cell line T-47D. The experiment in a line: Caspase cascade activation (EC50), T-47D. Particulars: Homo sapiens; T47D cells; caspase cascade activation; read-out: caspase potency (EC50) T47D. The method in brief:
(§1)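 EC50 values derive from a sigmoidal fit of net fluorescence (3 h reading minus control T=0 background) relative to untreated control. The 3 h room-temperature read used 14 μM DEVD-R110 substrate with lysolecithin, DTT and pH 7.2 PIPES buffer at 485/530 nm. Beforehand, cells were treated 48 h at 37° C with 0.016-10 μM final compound.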

For assay [2], the system named is human hepatocellular carcinoma cell line SNU398. Briefly: Caspase cascade activation (EC50), SNU398. The note with it: Homo sapiens, SNU-398; SNU398 cells; caspase cascade activation; read-out: caspase potency (EC50) SNU398. In short, it runs like this: as §1
Assay [3] concerns human colon carcinoma cell line HCT116. Briefly: Caspase cascade activation (EC50), HCT116. The note with it: Homo sapiens, HCT-116; HCT116 cells; caspase cascade activation; read-out: caspase potency (EC50) HCT116. The method in brief: as §1
Assay [4] relates to human cancer cell line H1299. Briefly: Caspase cascade activation (EC50), H1299. Particulars: NCI-H1299, H1299 cells, read-out: caspase potency (EC50) H1299. The method in brief: as §1
Assay [5] has as its system human Burkitt's lymphoma cell line Namalwa. The experiment in a line: Caspase cascade activation (EC50), Namalwa. Particulars: Homo sapiens, Burkitts lymphoma cell; Namalwa cells; caspase cascade activation; read-out: caspase potency (EC50) Namalwa. The method in brief: as §1
The test system of assay [6] is human lymphoma cell line Raji. Briefly: Caspase cascade activation (EC50), Raji. The note with it: Homo sapiens, RAJI cells, read-out: caspase potency (EC50) RAJI. In short, it runs like this: as §1
Assay [7] has as its system human B cell lymphoblastoid cell line Ramos. Briefly: Caspase cascade activation (EC50), Ramos. The note with it: Homo sapiens, RAMOS cells, read-out: caspase potency (EC50) RAMOS. The method in brief:
as §1

Assay [8] has as its system human breast cancer cell line T-47D. The experiment in a line: Inhibition of cell proliferation (GI50), T47D. The note with it: Homo sapiens; T47D cells, 48 h, CellTiter-Glo. In short, it runs like this:
(§2)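 48 h continuous treatment, 37 °C; final dose range 1 nM–10 μM; ATP-based luminescent viability (CellTiter-Glo); GI50 relative to 0.5 h start signal.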
(In ATP-based viability assays light output follows the ATP content of the culture.)

The subject of assay [9] is human hepatocellular carcinoma cell line SNU398. Briefly: Inhibition of cell proliferation (GI50), SNU398. The note with it: Homo sapiens; SNU 398 cells, 48 h, CellTiter-Glo. In short, it runs like this:
as §2

In assay [10] the test system is human colon carcinoma cell line HCT116. Briefly: Inhibition of cell proliferation (GI50), HCT116. Particulars: Homo sapiens; HCT 116 cells, 48 h, CellTiter-Glo. The method in brief: as §2
The test system of assay [11] is human lung cancer cell line H1299. Briefly: Inhibition of cell proliferation (GI50), H1299. Particulars: NCI-H1299, H1299 cells, 48 h, CellTiter-Glo. How it is done: (§3) Human breast cancer cell lines T-47D, human hepatocellular carcinoma cell line SNU398, human colon carcinoma cell line HCT116, human lung cancer cell line H1299, human leukemia cell line K562, human lymphoma cell line Raji, human B cell lymphoblastoid cell line Ramos, and human Burkitt's lymphoma cell line Namalwa were grown and harvested as in Example 100. An aliquot of […] of cells (4.4×10^4 cells/mL) was added to a well of a 96-well microtiter plate containing 5 μL of a 10% DMSO in RPMI-1640 media solution containing 10 nM to 100 μM of 3-(2-chlorophenyl)-6-(3,4-methylenedioxyphenyl)-7H-[1,2,4]triazolo[3,4-b][1,3,4]thiadiazine (1 nM to 10 μM final). An aliquot of 45 μL of cells was added to a well of a 96-well microtiter plate containing 5 μL of a 10% DMSO in RPMI-1640 media solution without compound as the control sample for maximal cell proliferation (LMax). The samples were mixed by agitation and then incubated at 37° C. for 48 h in a 5% CO2-95% humidity incubator. After incubation, the samples were removed from the incubator and 25 μL of CellTiter-Glo™ reagent (Promega) was added. The samples were mixed by agitation and incubated at room temperature for 10-15 min. Plates were then read using a luminescent plate reader (Model SPECTRAfluor Plus, Tecan) to give Ltest values.
(§4) The samples were mixed by agitation and then incubated at 37° C. for 0.5 h in a 5% CO2-95% humidity incubator. After incubation, the samples were removed from the incubator and 25 μL of CellTiter-Glo™ reagent (Promega) was added. The samples were mixed by agitation and incubated at […] 10-15 min at room temperature in a 5% CO2-95% humidity incubator. Fluorescence was read as above, (LStart) defining luminescence for initial cell number used as baseline in GI50 determinations.
(§5) Calculation: GI50 (dose for 50% inhibition of cell proliferation) is the concentration where [(Ltest−LStart)/(LMax−LStart)]=0.5.

Assay [12] has as its system human leukemia cell line K562. Briefly: Inhibition of cell proliferation (GI50), K562. Particulars: Homo sapiens; K562 cells, 48 h, CellTiter-Glo. The method in brief:
as §2

Assay [13] has as its system human lymphoma cell line Raji. Briefly: Inhibition of cell proliferation (GI50), Raji. Particulars: Homo sapiens; Raji cells, 48 h, CellTiter-Glo. In short, it runs like this:
as §2

Assay [14] concerns human B cell lymphoblastoid cell line Ramos. Briefly: Inhibition of cell proliferation (GI50), Ramos. The note with it: Homo sapiens; Ramos cells, 48 h, CellTiter-Glo. The method in brief:
as §2

The test system of assay [15] is human Burkitt's lymphoma cell line Namalwa. The experiment in a line: Inhibition of cell proliferation (GI50), Namalwa. Particulars: Homo sapiens, Burkitts lymphoma cell; Namalwa cells, 48 h, CellTiter-Glo. In short, it runs like this: as §2
The test system of assay [16] is human sarcoma cell line MES-SA. The experiment in a line: Inhibition of cell proliferation (GI50), MES-SA. Particulars: MES-SA cells. How it is done: as §3, §4, §5
(§6) Several compounds were tested in human sarcoma cell line MES-SA and multi-drug resistant (MDR) human sarcoma cell line MES-SA/ADR, murine leukemia cell line P388 and multi-drug resistant (MDR) murine leukemia cell line P388/ADR, and the data are summarized in Table III.

For assay [17], the system named is multi-drug resistant (MDR) human sarcoma cell line MES-SA/ADR. The experiment in a line: Inhibition of cell proliferation (GI50), MES-SA/ADR. Particulars: MES-SA/ADR multi-drug resistant cells. As for the experimental part:
as §3, §4, §5, §6

Assay [18] deals with murine leukemia cell line P388. The experiment in a line: Inhibition of cell proliferation (GI50), P388. Particulars: Mus musculus; P388 cells. As for the experimental part: as §3, §4, §5, §6
The test system of assay [19] is multi-drug resistant (MDR) murine leukemia cell line P388/ADR. Briefly: Inhibition of cell proliferation (GI50), P388/ADR. Particulars: Mus musculus; P388/ADR multi-drug resistant cells. How it is done:
as §3, §4, §5, §6

By EC50 is commonly meant the concentration needed to bring the measured effect to its halfway point. The GI50 is the concentration that inhibits growth by half. The low end stands for more potent growth inhibition, the high end for less potent growth inhibition. Consider `COc1ccc(C2=Nn3c(nnc3-c3cc(OC)c(OC)c(OC)c3)SC2)cc1OC` [Example L1, 3-(3,4,5-Trimethoxyphenyl)-6-(3,4-dimethoxyphenyl)-7H-[1,2,4]triazolo[3,4-b][1,3,4]thiadiazine], for which the EC50 turned out to be 499 nM in [1]; 132 nM in [2]; 178 nM in [3]; 573 nM in assay [4]; 122 nM in assay [5]; 180 nM in [6]. Also, in [7], the EC50 was 130 nM. Also, the GI50 in assay [8] is 200 nM; in assay [9] it was 147 nM; in assay [10], 200 nM; in assay [11], 339 nM; in [12], 163 nM; in assay [13] it was 150 nM. The GI50 in assay [14] turned out to be 76 nM; in [15], 243 nM.

Turning to `COc1ccc(C2=Nn3c(nnc3-c3cc(OC)c(OC)c(OC)c3)SC2)cc1` [Example A2, 3-(3,4,5-Trimethoxyphenyl)-6-(4-methoxyphenyl)-7H-[1,2,4]triazolo[3,4-b][1,3,4]thiadiazine], the concentration for a half-maximal effect (EC50) was 517 nM in assay [1]; 36 nM in assay [2]; 154 nM in assay [3]; 36 nM in assay [5]; 49 nM in assay [6]; 32 nM in assay [7]. The GI50 in assay [16] came out at 44 nM; in [17], 63 nM; in assay [18] it was 23 nM; in assay [19], 25 nM.

Take `COc1cc(OC)cc(-c2nnc3n2N=C(c2ccc4c(c2)OCO4)CS3)c1` [Example 2, 3-(3,5-Dimethoxyphenyl)-6-(3,4-methylenedioxyphenyl)-7H-[1,2,4]triazolo[3,4-b][1,3,4]thiadiazine]: the EC50 in [1] worked out at 508 nM; in assay [2], 141 nM; in [3], 139 nM; in [5] it was 117 nM; in assay [6], 112 nM; in assay [7], 89 nM. Also, the GI50 in assay [10] is 190 nM; in assay [12], 27 nM; in [13] it was 53 nM; in assay [14] it was 11 nM; in assay [15] it was 20 nM; in assay [16], 59 nM. Further, the GI50 in assay [17] is 154 nM; in assay [18], 20 nM; in assay [19], 29 nM.

Regarding `CCOc1ccc(C2=Nn3c(nnc3-c3ccc(Cl)cc3)SC2)cc1` [F, 3-(4-Chlorophenyl)-6-(4-ethoxyphenyl)-7H-[1,2,4]triazolo[3,4-b][1,3,4]thiadiazine], the EC50 was found to be 561 nM in [1]; 89 nM in assay [2]; 141 nM in assay [3]; 275 nM in assay [4]; 69 nM in assay [5]; 155 nM in assay [6]. Moreover, the EC50 in assay [7] is 106 nM. In addition, the GI50 in assay [8] worked out at 151 nM; in assay [10] it was 419 nM; in assay [11], 58 nM; in [12], 47 nM; in assay [13] it was 136 nM; in assay [14], 15 nM. This compound yielded a GI50 in assay [15] of 120 nM.

With `COc1cc(-c2nnc3n2N=C(c2ccc4c(c2)OCO4)CS3)cc(Cl)c1OC` [Example 4, 3-(3-Chloro-4,5-dimethoxyphenyl)-6-(3,4-methylenedioxyphenyl)-7H-[1,2,4]triazolo[3,4-b][1,3,4]thiadiazine], the 50% effective concentration (EC50) was 168 nM in assay [1]; 47 nM in [2]; 61 nM in [3]; 36 nM in assay [5]; 32 nM in [6]; 31 nM in assay [7]. Moreover, the GI50 in assay [10] amounted to 150 nM; in [12], 24 nM; in assay [13], 26 nM; in assay [14] it was 12 nM; in assay [15] it was 31 nM; in assay [16] it was 30 nM. In addition, the values for the 50% growth inhibitory concentration (GI50) in assay [17], in assay [18] and in assay [19] were 28 nM, 12 nM and 16 nM, respectively.

As to `COc1ccc(C2=Nn3c(nnc3-c3ccc(Cl)cc3Cl)SC2)cc1OC` [Example G1, 3-(2,4-Dichlorophenyl)-6-(3,4-dimethoxyphenyl)-7H-[1,2,4]triazolo[3,4-b][1,3,4]thiadiazine], the 50% effective concentration (EC50) is 505 nM in assay [1]; 75 nM in assay [2]; 231 nM in assay [3]; 277 nM in assay [4]; 78 nM in assay [5]; 101 nM in assay [6]. In addition, the EC50 in assay [7] is 107 nM. Besides, the GI50 is 130 nM in assay [8]; 60 nM in [9]; 81 nM in assay [10]; 48 nM in [11]; 32 nM in [12]; 90 nM in assay [13]. The GI50 in [14] came out at 45 nM; in assay [15] it was 13 nM.

Take `COc1ccccc1-c1nnc2n1N=C(c1ccc3c(c1)OCO3)CS2` [V, 3-(2-Methoxyphenyl)-6-(3,4-methylenedioxyphenyl)-7H-[1,2,4]triazolo[3,4-b][1,3,4]thiadiazine]: the EC50 in assay [1] came out at 62 nM; in assay [2], 68 nM; in assay [3] it was 111 nM; in [5] it was 61 nM; in assay [6], 81 nM; in [7], 75 nM. The 50% growth inhibitory concentration (GI50) was 83 nM in [16], 123 nM in assay [17], 31 nM in [18] and 43 nM in assay [19].
